According to patent US7501423B2, “Tubulin inhibitor and process for its preparation” (Wyeth, priority 2005, dated 2009):
Structures can show the parent of a compound that is named as a salt.

Assay: hygroscopic character of the salt forms
Type: physicochemical
Settings: solid salt form; no method or figures given

Row | Molecule | hygroscopicity (hygroscopic character of the salt)
1 | 6-chloro-5-{2,6-difluoro-4-[3-(methylamino)propoxy]phenyl}-2-pyrazin-2-yl-N-[(1S)-2,2,2-trifluoro-1-methylethyl]pyrimidin-4-amine hemifumarate | essentially avoids the disadvantage of the hygroscopic character
2 | CNCCCOc1cc(F)c(-c2c(Cl)nc(-c3cnccn3)nc2N[C@@H](C)C(F)(F)F)c(F)c1 [hydrochloride, 6-chloro-5-{2,6-difluoro-4-[3-(methylamino)propoxy]phenyl}-2-pyrazin-2-yl-N-[(1S)-2,2,2-trifluoro-1-methylethyl]pyrimidin-4-amine] | very hygroscopic
